A word on the IC50: it is the concentration needed to halve the response being measured.

Experimental findings from ChEMBL document CHEMBL5625207, “RIPK2 inhibitors for disease therapy: Current status and perspectives” (Eur J Med Chem, 2023) are described below.

Test [1] deals with T1, Receptor-interacting serine/threonine-protein kinase 2 (Homo sapiens, UniProt O43353). Put plainly: Inhibition of RIPK2 (unknown origin).
Test [2] has as its target T1, Receptor-interacting serine/threonine-protein kinase 2. As to the kind of experiment: Inhibition of full length FLAG His-tagged RIPK2 (unknown origin) expressed in Baculovirus by fluorescence polarization assay. On the technique in general: In fluorescence polarisation assays a small probe gives low polarisation when free and higher when bound to something large.
Test [3] shares this target. Put plainly: Inhibition of RIPK2 (unknown origin) by ADP-Glo assay. (ADP-Glo turns the ADP formed in a reaction into a luminescent signal.)
The target is the same in test [4]. Put plainly: Inhibition of RIPK2 (unknown origin) expressed in Escherichia coli.
Test [5] has the same target. As to the kind of experiment: Inhibition of RIPK2 (unknown origin) using (CRRKSLVGTPYWMAPE) peptide as substrate pre-incubated for 60 mins followed by substrate addition and measured after 2 hrs by fluorescence polarization assay.
The target of test [6] is von Hippel-Lindau disease tumor suppressor/Receptor-interacting serine/threonine-protein kinase 2 (Homo sapiens, UniProt O43353+P40337). As to the kind of experiment: Protac activity at VHL/RIPK2 in human THP-1 cells assessed as RIPK2 degradation measured after 16 hrs by Western blot analysis. The test is classed as cell-based. A general note: Immunoblotting shows a protein as a band on a membrane.
von Hippel-Lindau disease tumor suppressor/Receptor-interacting serine/threonine-protein kinase 2, sequence (O43353 whole entry): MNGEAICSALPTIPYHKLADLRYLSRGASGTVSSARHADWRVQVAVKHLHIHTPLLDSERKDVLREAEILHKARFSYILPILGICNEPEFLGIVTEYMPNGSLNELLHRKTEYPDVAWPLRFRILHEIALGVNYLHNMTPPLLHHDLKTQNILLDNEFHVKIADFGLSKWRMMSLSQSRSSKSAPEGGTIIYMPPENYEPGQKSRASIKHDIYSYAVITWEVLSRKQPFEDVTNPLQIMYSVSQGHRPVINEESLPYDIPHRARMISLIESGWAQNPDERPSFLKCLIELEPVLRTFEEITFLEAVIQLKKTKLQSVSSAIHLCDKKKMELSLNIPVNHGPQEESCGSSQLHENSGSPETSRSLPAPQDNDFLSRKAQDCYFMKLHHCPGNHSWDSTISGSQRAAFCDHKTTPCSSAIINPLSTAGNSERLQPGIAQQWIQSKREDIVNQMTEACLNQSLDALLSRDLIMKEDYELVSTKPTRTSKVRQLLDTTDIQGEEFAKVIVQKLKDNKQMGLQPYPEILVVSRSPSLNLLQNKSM
von Hippel-Lindau disease tumor suppressor/Receptor-interacting serine/threonine-protein kinase 2, sequence (P40337 whole entry): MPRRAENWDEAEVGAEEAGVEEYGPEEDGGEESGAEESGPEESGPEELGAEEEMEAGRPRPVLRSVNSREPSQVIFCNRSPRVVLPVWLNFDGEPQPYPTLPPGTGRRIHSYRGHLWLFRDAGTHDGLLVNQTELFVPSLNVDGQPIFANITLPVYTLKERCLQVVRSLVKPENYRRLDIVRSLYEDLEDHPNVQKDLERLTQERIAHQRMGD

T1 sequence (O43353 whole entry): as the sequence (O43353 whole entry) above

Take `Cc1ccc(-c2cn([C@H]3CC[C@@H](N)CC3)c3ncnc(N)c23)c(F)c1`: the half-inhibitory concentration (IC50) in test [1] and in test [2] was 0.6 nM in each case.

On to `c1cc(-c2ccc3ncnc(Nc4ccc5scnc5c4)c3c2)ccn1`, for which the IC50 in test [3] and in test [2] was 5.1 nM throughout.

For `c1cc2cc(n1)NCCOCCNc1ccc3ncc-2n3n1`, the IC50 in test [4] and in test [2] was 14.1 nM in each case.

Take `Cc1ccc(-c2nn(C(C)(C)CN(C)C)c3ncnc(N)c23)cc1`: the IC50 turned out to be 1010 nM in test [5] and 10 nM in test [2].

For the compound `Cc1ncsc1-c1ccc(CNC(=O)C2C[C@H](O)CN2C(=O)[C@@H](NC(=O)COCCOCCOCCOCCOc2cc3nccc(Nc4ccc5scnc5c4)c3cc2S(=O)(=O)C(C)(C)C)C(C)(C)C)cc1` (some centres undefined), the IC50 in test [6] was 2 nM.
